Reference: PubChem BioAssay (NCI)
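Interpolation was linear, between the two tested concentrations surrounding the appropriate level; five concentrations were tested over 48 hours in 96-well plates. The concentration for full growth arrest is given as TGI.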

Experiments:
Assay in all cases: inhibition of tumour cell growth, NCI panel, 48 h
[1] = test system: DU-145 prostate
[2] = test system: CAKI-1 renal
[3] = test system: 786-0 renal
[4] = test system: SF-539 CNS
[5] = test system: SNB-19 CNS
[6] = test system: IGROV1 ovarian
[7] = test system: HT29 colon
[8] = test system: OVCAR-3 ovarian
[9] = test system: UACC-62 melanoma
[10] = test system: OVCAR-5 ovarian
[11] = test system: SK-MEL-5 melanoma
[12] = test system: A498 renal
[13] = test system: COLO 205 colon
[14] = test system: RXF 393 renal
[15] = test system: MDA-MB-231 breast
[16] = test system: NCI-H23 lung
[17] = test system: KM12 colon
[18] = test system: HCT-15 colon
[19] = test system: HL-60(TB) leukemia
[20] = test system: NCI-H226 lung
[21] = test system: SF-295 CNS
[22] = test system: U251 CNS
[23] = test system: TK-10 renal
[24] = test system: MCF7 breast
[25] = test system: EKVX NSCLC
[26] = test system: CCRF-CEM leukemia
[27] = test system: UACC-257 melanoma
[28] = test system: PC-3 prostate
[29] = test system: SF-268 CNS
[30] = test system: HCT-116 colon
[31] = test system: RPMI-8226 leukemia
[32] = test system: SK-OV-3 ovarian
[33] = test system: BT-549 breast
[34] = test system: M14 melanoma
[35] = test system: SW-620 colon
[36] = test system: T-47D breast
[37] = test system: SN12C renal
[38] = test system: ACHN renal
[39] = test system: SK-MEL-2 melanoma
[40] = test system: OVCAR-8 ovarian
[41] = test system: MALME-3M melanoma
[42] = test system: K-562 leukemia
[43] = test system: SK-MEL-28 melanoma
[44] = test system: MDA-MB-435
[45] = test system: LOX IMVI melanoma
[46] = test system: NCI/ADR-RES ovarian
[47] = test system: HS 578T breast
[48] = test system: MDA-N
[49] = test system: UO-31 renal
[50] = test system: MOLT-4 leukemia
[51] = test system: NCI-H522 lung
[52] = test system: HOP-62 NSCLC
[53] = test system: A549 NSCLC
[54] = test system: SNB-75 CNS
[55] = test system: HOP-92 NSCLC
[56] = test system: NCI-H460 lung
[57] = test system: OVCAR-4 ovarian

COc1ccc(/C=C2\CCC(C)/C(=C\c3ccc(OC)c(OC)c3)C2=O)cc1OC (configuration not stated)
TGI [1]: 21 µM
TGI [2]: 21.6 µM
TGI [3]: 19.4 µM
TGI [4]: 13.8 µM
TGI [5]: 39.3 µM
TGI [6]: 14.6 µM
TGI [7]: 52.9 µM
TGI [8]: > 100 µM
TGI [9]: 23.1 µM
TGI [10]: 26.6 µM
TGI [11]: 17.5 µM
TGI [12]: 25.3 µM
TGI [13]: 54.2 µM
TGI [14]: 24.2 µM
TGI [15]: 60.8 µM
TGI [16]: 15.6 µM
TGI [17]: 7.04 µM
TGI [18]: 21.2 µM
TGI [19]: 5.93 µM
TGI [20]: 38.8 µM
TGI [21]: 23 µM
TGI [22]: > 100 µM
TGI [23]: 7.41 µM
TGI [24]: 22.3 µM
TGI [25]: 10.2 µM
TGI [26]: 7.6 µM
TGI [27]: 21.5 µM
TGI [28]: 23.4 µM
TGI [29]: 45.1 µM
TGI [30]: 14.3 µM
TGI [31]: 8.01 µM
TGI [32]: 42.3 µM
TGI [33]: 20.3 µM
TGI [34]: 31.2 µM
TGI [35]: > 100 µM
TGI [36]: 28.2 µM
TGI [37]: 36.5 µM
TGI [38]: 16.7 µM
TGI [39]: 25.3 µM
TGI [40]: 39.8 µM
TGI [41]: 22 µM
TGI [42]: 67.3 µM
TGI [43]: 48.1 µM
TGI [44]: > 100 µM
TGI [45]: 19.2 µM
TGI [46]: 32.5 µM
TGI [47]: 88.3 µM
TGI [48]: > 100 µM
TGI [49]: 23.3 µM
TGI [50]: 11.7 µM

O=C(O)CNc1ccc(C(=O)O)cc1
TGI [1]: > 100 µM
TGI [2]: > 100 µM
TGI [3]: > 100 µM
TGI [4]: > 100 µM
TGI [5]: > 100 µM
TGI [6]: > 100 µM
TGI [7]: > 100 µM
TGI [8]: > 100 µM
TGI [9]: > 100 µM
TGI [51]: > 100 µM
TGI [10]: > 100 µM
TGI [11]: > 100 µM
TGI [12]: > 100 µM
TGI [13]: > 100 µM
TGI [14]: > 100 µM
TGI [15]: > 100 µM
TGI [16]: > 100 µM
TGI [17]: > 100 µM
TGI [18]: > 100 µM
TGI [52]: > 100 µM
TGI [19]: > 100 µM
TGI [20]: > 100 µM
TGI [21]: > 100 µM
TGI [22]: > 100 µM
TGI [23]: > 100 µM
TGI [24]: > 100 µM
TGI [25]: > 100 µM
TGI [26]: > 100 µM
TGI [27]: > 100 µM
TGI [53]: > 100 µM
TGI [54]: > 100 µM
TGI [28]: > 100 µM
TGI [55]: > 100 µM
TGI [29]: > 100 µM
TGI [30]: > 100 µM
TGI [31]: > 100 µM
TGI [32]: > 100 µM
TGI [33]: > 100 µM
TGI [34]: > 100 µM
TGI [35]: > 100 µM
TGI [36]: > 100 µM
TGI [37]: > 100 µM
TGI [38]: > 100 µM
TGI [56]: > 100 µM
TGI [39]: > 100 µM
TGI [40]: > 100 µM
TGI [41]: > 100 µM
TGI [42]: > 100 µM
TGI [43]: > 100 µM
TGI [44]: > 100 µM
TGI [45]: > 100 µM
TGI [46]: > 100 µM
TGI [47]: > 100 µM
TGI [48]: > 100 µM
TGI [49]: > 100 µM
TGI [50]: > 100 µM
TGI [57]: > 100 µM
